Measurements reported in patent US20120029037A1, “ANIMAL ECTOPARASITE-CONTROLLING AGENT” (SUMITOMO CHEMICAL COMPANY, LIMITED, priority 2010, published 2012).

Tests used:
Format in all cases: in vivo
[1] = test system: Ticks (Haemaphysalis longicornis); test: Pesticidal activity on ticks in filter paper test; conditions: 48 h, 100 mg/m^2, non-blood-fed young ticks, 2 days later
Method: Pesticidal Activity on Ticks (Haemaphysalis longicornis) in Filter Paper Test
Each (5 mg) of the present hydrazide compounds (5), (8), (11) and (12) was dissolved in acetone (10 mL), and this acetone solution (1 mL) was uniformly applied onto one side of a filter paper (TOYO No. 2; 5×10 cm; the surface area of the filter paper was 50 cm^2, and thus the amount of the present hydrazide compound applied was 100 mg/m^2). After drying, said filter paper was folded, and the both sides of the paper were clipped to form a bag. Into this bag, test ticks (Haemaphysalis longicornis, non-blood-fed young ticks, 10 ticks/group) were added, and the opening was clipped to seal the bag. Two (2) days later, the number of dead ticks was examined and the mortality was calculated by the following formula:
Mortality (%)=100×(number of dead ticks/number of ticks tested)

[2] = test system: Mouse-infested ticks (Haemaphysalis longicornis); test: Dropping application against mouse-infested ticks; conditions: 0.1% w/v solution 200 μL dropwise to whole body surface, 2 days after application
Method: Propping Application Against Mouse-Infested Ticks (Haemaphysalis longicornis)
The previous day before dropping application, 30 test ticks (Haemaphysalis longicornis, young ticks) were deposited on a mouse. Before the dropping application, uninfested ticks were removed.
The present hydrazide compound (5) (5 mg) was dissolved in a mixture (5 mL) of propylene carbonate and diethylene glycol monoethyl ether in equal amounts to prepare a 0.1% w/v solution. Said solution (200 μL) was applied dropwise to the whole body surface of a mouse with a pipette. To a control group, the mixture (200 μL) alone was applied. Each application was repeated 3 times per group.
Two (2) days after the application, the number of dead ticks was examined and the mortality was calculated by the following formula:
Mortality (%)=100×(number of dead ticks/infested ticks before dropping application)

[3] = test system: Mouse-infested cat fleas (Ctenocephalides felis); test: Dropping application against mouse-infested cat fleas; conditions: 0.5% w/v solution 200 μL dropwise along dorsal line, 2 days later
Method: Propping Application Against Mouse-Infested Cat Fleas (Ctenocephalides felis)
The present hydrazide compound (5) (25 mg) was dissolved in propylene carbonate (5 mL) to prepare a 0.5% w/v solution. Said solution (200 μL) was applied dropwise along the dorsal line of a mouse with a pipette. To a control group, propylene carbonate (200 μL) alone was applied. Each application was repeated 3 times per group.
After the dropping application, 20 cat fleas were deposited on each mouse. Two (2) days later, the number of dead cat fleas was examined and the mortality was calculated by the following formula:
(§1) Mortality (%)=100×(number of dead cat fleas/number of cat fleas tested)

[4] = test system: Mouse-infested ticks (Haemaphysalis longicornis); test: Oral administration against mouse-infested ticks; conditions: 20 mg in 10 mL test solution at 10 mL per 1 kg body weight, 2 days after administration
Method: Oral Administration Against Mouse-Infested Ticks (Haemaphysalis longicornis)
The previous day before oral administration, 30 test ticks (Haemaphysalis longicornis, young ticks) were deposited on a mouse. Before the oral administration, uninfested ticks were removed.
(§2) The present hydrazide compound (5) (20 mg) was dissolved in dimethylformamide (680 mg), and thereto pure water or a corn oil was added to prepare a test solution (10 mL). Said test solution was orally administered to the mouse at the rate of 10 mL per 1 kg of the body weight of the mouse with a gastric sonde. To a control group, a 7% dimethylformamide/corn oil solution alone was orally administered. Each administration was repeated 3 times per group.
Two (2) days after the administration, the number of dead ticks was examined and the mortality was calculated by the following formula:
Mortality (%)=100×(number of dead ticks/infested ticks before oral administration)

[5] = test system: Mouse-infested cat fleas (Ctenocephalides felis); test: Oral administration against mouse-infested cat fleas; conditions: 20 mg in 10 mL test solution at 10 mL per 1 kg body weight, 2 days later
Method: Oral Administration Against Mouse-Infested Cat Fleas (Ctenocephalides felis)
as §2, with “at a” for “at the”
After the oral administration, 20 cat fleas were deposited on each mouse. Two (2) days later, the number of cat fleas was examined and the mortality was calculated by the following formula:
as §1

[6] = test system: Dog-infested ticks (Haemaphysalis longicornis); test: Dropping application against dog-infested ticks; conditions: dropping on skin, 16 days after application, vs placebo group
Method: Propping Application Against Dog-Infested Ticks (Haemaphysalis longicornis)
(§3) The present hydrazide compound (5) (0.75 or 1.5 g) was dissolved in diethylene glycol monoethyl ether (6.0 g) to prepare a test solution. Said test solution was directly dropped on the skin of the neck and back of the dog while pushing aside fur thereon at a rate of 0.1 ml per 1 kg of the dog's body weight (dose amount: 10 or 20 mg/kg). This is referred to as a test group. On the other hand, diethylene glycol monoethyl ether alone was applied dropwise to a placebo group.
Fourteen (14) days later, 100 test ticks were deposited on each dog. Two (2) days after the deposit, the number of living ticks, which were infesting the dogs, was examined. When the examination was completed, all infested ticks were removed from the dogs. The infestation rate and control rate were calculated by the following formulae: […]
Method of calculating infestation rate and control rate at 16 days after the application:
Infestation rate (%) at X days after application=(number of living ticks at X days/number of ticks deposited)×100
Control rate (%) at X days after the application=(infestation rate of placebo group at X days−infestation rate of test group at X days)/infestation rate of placebo group at X days×100
(§4) In addition, if an infestation rate of a test group is higher than a placebo group, then the control rate is deemed to be 0%.

[7] = test system: Cat-infested cat fleas (Ctenocephalides felis); test: Dropping application against cat-infested cat fleas; conditions: dropping on skin; for Flea control rates (%) at 2 days after the application: vs infestation before application; for Flea control rates (%) at 16 days after the application: vs placebo group
Method: Propping Application Against Cat-Infested Cat Fleas (Ctenocephalides felis)
The previous day before dropping application, 50 test fleas (cat flea adults) were deposited on a cat. Before the dropping application, infested fleas were counted.
as §3, with “(0.75 g” for “(0.75”, “cat” for “dog”, “thereon on” for “thereon”, “cat's” for “dog's”
Two (2) days after the application, the number of living fleas, which were infesting the cats, was examined. When the examination was completed, all infested fleas were removed from the cats.
Fourteen (14) days later, 50 test fleas were re-deposited on each cat. Two (2) days after the re-deposit, the number of living fleas, which were infesting the cats, was examined. When the examination was completed, all infested fleas were removed from the cats. The infestation rate and control rate were calculated by the following formulae: […]
(i) Method of calculating infestation rate and control rate at the initial stage (2 days) after the application:
Infestation rate (%) at X days after application=(number of living fleas at X days/number of living fleas before application)×100
Control rate (%) at X days after application=(infestation rate of test group before application−infestation rate of test group at X days)/infestation rate of test group before application×100
(ii) Method of calculating infestation rate and control rate at 16 days after the application:
Infestation rate (%) at X days after application=(number of living fleas at X days/number of fleas deposited)×100
Control rate (%) at X days after application=(infestation rate of placebo group at X days−infestation rate of test group at X days)/infestation rate of placebo group at X days×100
as §4

CC(C)CC(=O)NNc1cc(C2=NOC(c3cc(Cl)cc(Cl)c3)(C(F)(F)F)C2)ccc1Cl (centres unmarked) [Compound (5), N′-{2-chloro-5-[5-(3,5-dichlorophenyl)-5-trifluoromethyl-4,5-dihydroisoxazol-3-yl]phenyl}isovalerohydrazide]
mortality at 100 mg/m2 [1]: ≥ 90%
Mortality [2]: ≥ 70%
Mortality [3]: ≥ 70%
Mortality [4]: ≥ 90%
Mortality [5]: ≥ 90%
Tick control rates (%) at 16 days after the application ([6]; dose 10 mg/kg): 93%
Tick control rates (%) at 16 days after the application ([6]; dose 20 mg/kg): 100%
Flea control rates (%) at 2 days after the application ([7]; dose 10 mg/kg): 83%
Flea control rates (%) at 16 days after the application ([7]; dose 10 mg/kg): 92%
Flea control rates (%) at 2 days after the application ([7]; dose 20 mg/kg): 92%
Flea control rates (%) at 16 days after the application ([7]; dose 20 mg/kg): 95%

CCCCCC(=O)NNc1cc(C2=NOC(c3cc(Cl)cc(Cl)c3)(C(F)(F)F)C2)ccc1Cl (centres unmarked) [(12), N′-{5-[5-(3,5-dichlorophenyl)-5-trifluoromethyl-4,5-dihydroisoxazol-3-yl]-2-chlorophenyl}hexanohydrazide]
mortality at 100 mg/m2 [1]: ≥ 90%

CCCCC(=O)NNc1cc(C2=NOC(c3cc(Cl)cc(Cl)c3)(C(F)(F)F)C2)ccc1Cl (centres unmarked) [(11), N′-{5-[5-(3,5-dichlorophenyl)-5-trifluoromethyl-4,5-dihydroisoxazol-3-yl]-2-chlorophenyl}pentanohydrazide]
mortality at 100 mg/m2 [1]: ≥ 90%

CC(C)(C)C(=O)NNc1cc(C2=NOC(c3cc(Cl)cc(Cl)c3)(C(F)(F)F)C2)ccc1Cl (centres unmarked) [(8), N′-{5-[5-(3,5-dichlorophenyl)-5-trifluoromethyl-4,5-dihydroisoxazol-3-yl]-2-chlorophenyl}pivalohydrazide]
mortality at 100 mg/m2 [1]: ≥ 90%
